From ChEMBL document CHEMBL5620344, “Discovery of novel 5-(2-hydroxyphenyl)-2-phthalide-3(3H)-pyrazolones as balanced multifunctional agents against Alzheimer's disease” (Eur J Med Chem, 2023)
Active and inactive are the calls of the source. The rule behind the calls is not given here.

How the values were obtained:
PC-12 [1] = test: Cytotoxicity against rat PC12 cells assessed as effect on cell viability at 2.5 to 25 uM by MTT assay; assay type: toxicity, cell-based; conditions: pc-12, 25 µM, dose 2.5-25 µM
[2] = Metal chelating activity assessed as compound-Cu2+ complex formation by measuring red shift of absorption peak with declined absorption at 37.5 uM in presence of CuCl2 by UV-Vis spectrometry
BV-2 [3] = test: Anti-neuroinflammatory activity against LPS-stimulated mouse BV-2 cells assessed as inhibition of TNF-alpha release at 0.5 uM by ELISA; assay type: functional
BV-2 [4] = test: Anti-neuroinflammatory activity against LPS-stimulated mouse BV-2 cells assessed as inhibition of NO release at 2.5 uM incubated for 24 hrs by Griess reagent based assay; assay type: functional
BV-2 [5] = test: Cytotoxicity against mouse BV-2 cells assessed as effect on cell viability at 2.5 to 25 uM by MTT assay; assay type: toxicity, cell-based; conditions: bv-2, 25 µM, dose 2.5-25 µM
[6] = target: Amyloid-beta precursor protein (Homo sapiens) (UniProt P05067); test: Disaggregation of Cu2+-induced amyloid beta (1 to 42) (unknown origin) preformed fibrils assessed as degradation of crude fibrils incubated for 24 hrs by transmission electron microcopy
Mus musculus [7] = test: Anti-oxidative stress against amyloid beta (1-42)-induced alzheimer's disease mouse model assessed as decrease in MDA content in hippocampus at 8 to 32 mg/kg and measured on day 6; assay type: functional, organism-based; conditions: dose 8-32 mg/kg, time 6.0 day
[8] = Ratio of AUC in brain to plasma in BALB/c at 30 mg/kg, ig; assay type: ADME, organism-based; conditions: mouse, po
[9] = Tmax in BALB/c mouse plasma at 30 mg/kg, ig; assay type: ADME, organism-based; conditions: po
[10] = Antioxidant activity assessed as trolox equivalent of ORAC radical scavenging activity by ORAC-FL assay relative to trolox; assay type: functional
MAO-A = target: T1, MAO-A (Homo sapiens, UniProt P21397); test: Inhibition of human recombinant MAO-A at 10 uM
T1 sequence (P21397 whole entry): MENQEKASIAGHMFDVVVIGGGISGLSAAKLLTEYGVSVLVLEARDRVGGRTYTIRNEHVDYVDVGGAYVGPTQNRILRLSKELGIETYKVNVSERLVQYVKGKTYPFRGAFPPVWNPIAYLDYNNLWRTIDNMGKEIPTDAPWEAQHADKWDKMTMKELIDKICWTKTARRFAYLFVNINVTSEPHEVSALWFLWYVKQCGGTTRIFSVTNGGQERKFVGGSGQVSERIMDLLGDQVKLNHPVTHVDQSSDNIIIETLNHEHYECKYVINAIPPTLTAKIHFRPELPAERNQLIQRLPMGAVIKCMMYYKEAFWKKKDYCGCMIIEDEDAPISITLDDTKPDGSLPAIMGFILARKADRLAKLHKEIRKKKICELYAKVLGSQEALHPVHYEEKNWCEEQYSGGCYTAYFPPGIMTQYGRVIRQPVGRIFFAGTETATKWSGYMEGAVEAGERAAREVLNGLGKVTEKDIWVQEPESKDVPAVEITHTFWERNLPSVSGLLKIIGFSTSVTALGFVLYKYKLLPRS

[11] = target: T2, Amine oxidase [flavin-containing] B (Homo sapiens, UniProt P27338); test: Inhibition of human recombinant MAO-B
T2 sequence (P27338 whole entry): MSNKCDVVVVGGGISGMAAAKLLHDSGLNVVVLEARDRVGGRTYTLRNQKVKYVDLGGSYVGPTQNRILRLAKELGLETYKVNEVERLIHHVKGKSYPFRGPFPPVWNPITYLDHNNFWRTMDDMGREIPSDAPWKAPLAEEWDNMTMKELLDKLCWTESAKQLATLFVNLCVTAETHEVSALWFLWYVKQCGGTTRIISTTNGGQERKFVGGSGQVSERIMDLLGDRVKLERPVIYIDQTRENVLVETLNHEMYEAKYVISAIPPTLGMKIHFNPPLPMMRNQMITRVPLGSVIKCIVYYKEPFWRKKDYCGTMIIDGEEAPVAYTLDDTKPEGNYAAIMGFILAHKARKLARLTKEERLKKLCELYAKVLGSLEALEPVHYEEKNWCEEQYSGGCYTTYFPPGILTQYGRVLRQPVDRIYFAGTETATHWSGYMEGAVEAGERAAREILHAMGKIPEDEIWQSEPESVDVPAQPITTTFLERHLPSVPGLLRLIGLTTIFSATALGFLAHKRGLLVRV

Mus musculus [12] = test: Anti-inflammatory activity against amyloid beta (1 to 42)-induced alzheimer's disease mouse model assessed as decrease in TNF-alpha content in hippocampus at 8 to 32 mg/kg and measured on day 6; assay type: functional, organism-based; conditions: dose 8-32 mg/kg, time 6.0 day
[13] = Selectivity index, ratio of IC50 for human recombinant MAO-A to IC50 for human recombinant MAO-B
PC-12 [14] = test: Neuroprotective activity against H2O2-induced cytotoxicity in rat PC12 cells assessed as cell viability at 2.5 uM by MTT assay (reference value: 54.9%); assay type: functional; conditions: read-out: Activity
[15] = AUC (0 to t) in BALB/c mouse brain at 30 mg/kg, ig; assay type: ADME, organism-based; conditions: in vivo, po
Mus musculus [16] = test: Antialzheimer activity against amyloid beta (1-42)-induced alzheimer's disease mouse model assessed as decrease in cognitive impairment by measuring decrease in escape latency time during training phase at 8 to 32 mg/kg and measured for 5 days by Morris water maze test; assay type: functional, organism-based; conditions: dose 8-32 mg/kg, time 5.0 day
[17] = target: Amyloid-beta precursor protein (Homo sapiens) (UniProt P05067); test: Inhibition of self-induced amyloid beta (1 to 42) (unknown origin) aggregation at 25 uM by ThT fluorescence assay
[18] = target: Amyloid-beta precursor protein (Homo sapiens) (UniProt P05067); test: Disaggregation of self-induced amyloid beta (1 to 42) (unknown origin) preformed fibrils assessed as reduction in long fibrils formed incubated for 24 hrs by transmission electron microscopy
[19] = Permeability of the compound at 100 ug/ml by PAMPA-BBB assay; assay type: ADME; conditions: dose 100 µg/ml, read-out: permeability
BV-2 [20] = test: Anti-neuroinflammatory activity against LPS-stimulated mouse BV-2 cells assessed as inhibition of TNF-alpha release at 10 uM by ELISA; assay type: functional
[21] = AUC (0 to t) in BALB/c mouse plasma at 30 mg/kg, ig; assay type: ADME, organism-based; conditions: po
Mus musculus [22] = test: Antialzheimer activity against amyloid beta (1-42)-induced alzheimer's disease mouse model assessed as decrease in amyloid beta (1 to 42) level in hippocampus at 32 mg/kg and measured on day 6 by ELISA; assay type: functional, organism-based; conditions: time 6.0 day
[23] = Half life in BALB/c mouse plasma at 30 mg/kg, ig; assay type: ADME, organism-based; conditions: po
[24] = Antioxidant activity assessed as inhibition of Cu2+-induced ROS production by measuring decrease in fluorescence intensity in presence of Cu2+ and ascorbate by CCA-dye based fluorescence analysis; assay type: functional
Mus musculus [25] = test: Antialzheimer activity against amyloid beta (1-42)-induced alzheimer's disease mouse model assessed as decrease in cognitive impairment by measuring increase in time spent in target quadrant in spatial probe trial at 8 to 32 mg/kg and measured on day 6 by Morris water maze test; assay type: functional, organism-based; conditions: dose 8-32 mg/kg, time 6.0 day
[26] = Metal chelating activity assessed as compound-Al3+ complex formation by measuring blue shift of maximum absorption peak at 37.5 uM in presence of AlCl3 by UV-Vis spectrometry

Chain of Amyloid-beta precursor protein (Homo sapiens) (P05067 whole entry): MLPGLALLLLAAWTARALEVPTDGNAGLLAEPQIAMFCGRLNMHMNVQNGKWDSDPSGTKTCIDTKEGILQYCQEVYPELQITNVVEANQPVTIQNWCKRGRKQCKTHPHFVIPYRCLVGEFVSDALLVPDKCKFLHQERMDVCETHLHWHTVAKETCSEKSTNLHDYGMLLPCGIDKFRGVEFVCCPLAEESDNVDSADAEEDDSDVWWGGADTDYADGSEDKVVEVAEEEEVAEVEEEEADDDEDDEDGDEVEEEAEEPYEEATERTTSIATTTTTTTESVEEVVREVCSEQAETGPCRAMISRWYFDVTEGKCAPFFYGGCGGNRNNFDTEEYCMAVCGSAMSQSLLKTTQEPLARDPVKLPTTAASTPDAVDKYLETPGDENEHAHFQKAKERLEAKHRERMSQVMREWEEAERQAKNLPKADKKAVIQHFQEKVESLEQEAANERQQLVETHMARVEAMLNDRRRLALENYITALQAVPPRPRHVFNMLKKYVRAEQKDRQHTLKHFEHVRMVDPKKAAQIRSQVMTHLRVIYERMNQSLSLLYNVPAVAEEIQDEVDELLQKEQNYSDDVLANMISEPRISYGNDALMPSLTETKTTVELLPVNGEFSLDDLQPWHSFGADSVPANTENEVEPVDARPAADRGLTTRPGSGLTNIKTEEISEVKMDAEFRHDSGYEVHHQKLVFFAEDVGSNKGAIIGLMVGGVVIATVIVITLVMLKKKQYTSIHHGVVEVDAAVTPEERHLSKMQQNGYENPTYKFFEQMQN

In the case of `CCCCCCCC1OC(=O)c2cc(N3N=C(c4cc(Cl)ccc4O)CC3=O)ccc21` (configuration not stated), the Activity (PC-12 [1]) is reported as “Non-Toxic”, the Activity [2] is reported as “Active” and the inhibition at 0.5 µM (BV-2 [3]) is reported as 22.7%. The inhibition at 2.5 µM (BV-2 [4]) was 37.9%, the Activity (BV-2 [5]) was “Non-Toxic” and the Activity [6] was “Active”. For the same compound, the Activity (Mus musculus [7]) was “Dose-Dependent Effect”, the Kp [8] was 0.69 and the Tmax [9] was 30 min. For the same compound, the Ratio [10] was 1.16 equiv, the inhibition at 10 µM (MAO-A) was 32.6% and the IC50 [11] was 410 nM. The Activity (Mus musculus [12]) was “Active”, the Ratio IC50 [13] was over 24.4 and the viability at 2.5 µM (PC-12 [14]) was 73.4%. For the same compound, the AUCt [15] was 2032.5 ng·h/g, the Activity (Mus musculus [16]) was “Active” and the inhibition [17] was 56%. The Activity [18] was “Active”, the Papp at 100 ug/ml [19] was 6.37 ×10⁻⁶ cm/s and the inhibition at 10 µM (BV-2 [20]) was 71.6%. For the same compound, the AUC(0-t) [21] was 2940 ng·h/mL, the Activity (Mus musculus [22]) was “Active” and the half-life [23] was 69 min. The Activity [24] was “Active”, the Activity (Mus musculus [25]) was “Active” and the Activity [26] was “Active”.
